Measurements reported in article PMC4747340, “A new class of small molecule estrogen receptor-alpha antagonists that overcome anti-estrogen resistance” (Oncotarget, 2015).

Assays:
Format in all cases: cell-based
BRCA1: ER complex = molecular target: T1, BRCA1: ER complex (Homo sapiens, UniProt P03372); assay: immunoprecipitation-Western blotting of BRCA1:ER complex in MCF-7 cells
T1 construct: endogenous in cells; host or cells: MCF-7
Procedure: Figure 7 Compound 4631-P/1 disrupts the BRCA1/ER interaction in MCF-7 cells A., B. MCF-7 cells were incubated with the indicated with compound 4631-P/1 (1 or 20 μM) or vehicle only (DMSO) plus E2 (10 nM) for 24 hr; and the cells were harvested for immunoprecipitation of ER (A) or BRCA1 (B), followed by Western blotting for ER and BRCA1. As a negative control, cells treated with vehicle (DMSO) only were subjected to an IP with normal IgG. C. Unprecipitated lysates from cells treated as in panel A were subjected to Western blotting to detect BRCA1, ER, or actin (loading control). The data shown in each panel are representative of three independent experiments.
After the indicated treatments, cells were harvested, and whole cell extracts were prepared in IP buffer [10 mM Tris-HCl (pH 7.4), 150 mM NaCl, 1 mM EDTA, 1 mM EGTA, 1% Triton X-100, 0.5% IGEPAL CA-630 (Sigma), 10% glycerol, 1 mM sodium orthovanadate, and protease inhibitor cocktail (Santa Cruz)] [11, 18]. Each IP was carried out using 2-μg antibody and 500-μg extract protein. […] For each experiment, a control IP using an equal quantity of normal mouse or rabbit IgG (Santa Cruz) was carried out. […]

ER-β = molecular target: T2, ER-β (Homo sapiens, UniProt Q92731); assay: E2-stimulated ER-β activity, ERE-TK-Luc reporter in transfected DU-145 cells
T2 construct: host or cells: DU-145
Procedure: (§1) Figure 12 Compound 35446 inhibits the activity of ER-β Subconfluent proliferating DU-145 cells in 24-well dishes were transfected overnight with the ER=α or ER=β expression vector plus the ERE-TK-Luc reporter plasmid (0.25 μg per plasmid/well), washed, and allowed to recover for several hours in fresh culture medium. The cells were then post-incubated for 24 hr to allow gene expression, after which they were treated ± E2 (10 nM) and ± compound 35446 (20 μM) (or compound B2 as a negative control) for 24 hr and assayed for luciferase activity. Luciferase activity is expressed relative to the no E2 control. Values are means ± SEMs of four replicate wells. The data shown in each panel are representative of three independent experiments.
To determine the effect of compound on ER-β activity, an ER- β expression plasmid (cat. no.: 35562, Addgene, Cambridge) was co-transfected into ER- DU-145 human prostate carcinoma cells along with the ERE-TK-Luc reporter plasmid (0.25 μg of each plasmid) and the cells were incubated overnight to allow gene expression. The cells were then treated ± E2 (10 nM) and ± the indicated compound for 24-hr, and harvested for luciferase assays as above.

ER Pro325Ala = molecular target: T3, ER Pro325Ala (Homo sapiens, UniProt P03372, P325A); assay: ER mutation analysis, ERE-TK-Luc reporter in transfected MDA-MB-231 cells; settings: MDA-MB-231 transfected with mutant ER, E2 10 nM, 24 hr
T3 construct: expressed in transfected cells; host or cells: MDA-MB-231
From the text: (§2) B., C. Panels B and C show a comparison of the ER interaction of one of our original series of compounds (A7) (B) and one new compounds (48693-K/1) (C). ER is represented by gray ribbon and its residues interacting with the compounds are drawn with wireframe and labeled. […] The hydrogen bond interaction with ARG 394 is shown in green line. […] The cells were harvested for luciferase assays. Luciferase values are expressed as a percent of the +E2 vehicle control and are means ± SEMs of four wells. The data shown in panels D to G are representative of three independent experiments.
(§3) Subconfluent cells in 24-well dishes were transfected overnight with 0.25 μg of each indicated vector plus the ERE-TK-Luc reporter in serum-free DMEM containing Lipofectamine2000 (Life Technologies, Washington, DC). Total transfected DNA was kept constant by addition of control vector. The cells were washed, incubated in phenol red-free DMEM containing 5% charcoal-stripped serum (obtained from the Tissue Culture Shared Resource) (0.2 ml/well) ± E2 (10 nM) ± the indicated compound for 24-hr, and harvested for luciferase assays. For each assay condition was tested in quadrupicate. To monitor the transfection efficiency, cultures were co-transfected with plasmid pRSV-β-gal (Promega, Madison, WI) to visualize transfected cells by X-gal staining.

ER Ile386Ala+Leu387Ala = molecular target: T4, ER Ile386Ala+Leu387Ala (Homo sapiens, UniProt P03372, I386A/L387A); assay: as above; settings: MDA-MB-231 transfected with mutant ER, E2 10 nM, 24 hr
T4 construct: expressed in transfected cells; host or cells: MDA-MB-231
From the text: as §2, §3

ER Lys449Ala = molecular target: T5, ER Lys449Ala (Homo sapiens, UniProt P03372, K449A); assay: as above; settings: MDA-MB-231 transfected with mutant ER, E2 10 nM, 24 hr
T5 construct: expressed in transfected cells; host or cells: MDA-MB-231
From the text: as §2, §3

ER Pro324Ala = molecular target: T6, ER Pro324Ala (Homo sapiens, UniProt P03372, P324A); assay: as above; settings: MDA-MB-231 transfected with mutant ER, E2 10 nM, 24 hr
T6 construct: expressed in transfected cells; host or cells: MDA-MB-231
From the text: as §2, §3

ER Glu353Ala = molecular target: T7, ER Glu353Ala (Homo sapiens, UniProt P03372, E353A); assay: as above; settings: MDA-MB-231 transfected with mutant ER, E2 10 nM, 24 hr
T7 construct: expressed in transfected cells; host or cells: MDA-MB-231
From the text: as §2, §3

ER Glu323Ala = molecular target: T8, ER Glu323Ala (Homo sapiens, UniProt P03372, E323A); assay: as above; settings: MDA-MB-231 transfected with mutant ER, E2 10 nM, 24 hr
T8 construct: expressed in transfected cells; host or cells: MDA-MB-231
From the text: as §2, §3

ER-α = molecular target: T9, ER-α (Homo sapiens, UniProt P03372); assay: E2-stimulated ER-α activity, ERE-TK-Luc reporter in transfected DU-145 cells; settings: DU-145 transfected with ER-α, E2 10 nM, compound 20 μM, 24 hr
T9 construct: expressed in transfected cells; host or cells: DU-145
Procedure: as §1
as §3, with “To monitor the transfection efficiency, cultures were co-transfected with plasmid pRSV-β-gal (Promega, Madison, WI) to visualize transfected cells by X-gal staining.” left out

T1 sequence (P03372 whole entry, one chain of several): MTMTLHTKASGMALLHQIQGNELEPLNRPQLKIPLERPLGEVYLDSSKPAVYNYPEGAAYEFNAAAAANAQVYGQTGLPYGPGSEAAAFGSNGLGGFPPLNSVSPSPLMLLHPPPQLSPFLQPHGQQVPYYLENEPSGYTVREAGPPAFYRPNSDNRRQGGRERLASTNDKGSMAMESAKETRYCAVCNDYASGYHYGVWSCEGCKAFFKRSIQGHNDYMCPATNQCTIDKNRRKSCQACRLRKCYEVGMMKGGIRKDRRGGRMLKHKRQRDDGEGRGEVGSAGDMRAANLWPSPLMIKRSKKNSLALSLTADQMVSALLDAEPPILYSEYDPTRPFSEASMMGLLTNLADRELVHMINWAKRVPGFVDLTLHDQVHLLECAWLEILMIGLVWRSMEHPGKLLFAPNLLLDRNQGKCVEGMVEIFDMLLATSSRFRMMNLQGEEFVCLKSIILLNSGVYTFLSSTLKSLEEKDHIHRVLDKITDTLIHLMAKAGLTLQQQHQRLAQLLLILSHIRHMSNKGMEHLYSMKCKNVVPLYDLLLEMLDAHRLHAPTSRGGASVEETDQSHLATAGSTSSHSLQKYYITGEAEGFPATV
T2 sequence (Q92731 whole entry): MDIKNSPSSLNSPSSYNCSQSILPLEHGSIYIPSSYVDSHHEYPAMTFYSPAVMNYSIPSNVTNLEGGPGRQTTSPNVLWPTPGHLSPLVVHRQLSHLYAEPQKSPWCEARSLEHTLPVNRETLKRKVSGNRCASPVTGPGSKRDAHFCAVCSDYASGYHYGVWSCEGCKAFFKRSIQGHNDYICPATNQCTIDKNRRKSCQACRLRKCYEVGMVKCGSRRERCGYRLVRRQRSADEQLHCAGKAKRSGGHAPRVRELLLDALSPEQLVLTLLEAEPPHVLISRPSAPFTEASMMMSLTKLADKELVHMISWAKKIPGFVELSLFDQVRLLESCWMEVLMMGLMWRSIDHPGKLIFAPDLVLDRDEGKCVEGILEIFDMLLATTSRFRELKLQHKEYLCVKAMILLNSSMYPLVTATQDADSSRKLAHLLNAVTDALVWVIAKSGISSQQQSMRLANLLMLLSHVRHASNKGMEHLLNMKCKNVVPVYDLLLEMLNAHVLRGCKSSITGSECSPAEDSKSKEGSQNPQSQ
T8 sequence (P03372 whole entry E323A): as the sequence (P03372 whole entry, one chain of several) above, with E323A counted along it
T4 sequence (P03372 whole entry I386A/L387A): as the sequence (P03372 whole entry, one chain of several) above, with I386A, L387A counted along it
T9 sequence (P03372 whole entry): as the sequence (P03372 whole entry, one chain of several) above
T3 sequence (P03372 whole entry P325A): as the sequence (P03372 whole entry, one chain of several) above, with P325A counted along it
T7 sequence (P03372 whole entry E353A): as the sequence (P03372 whole entry, one chain of several) above, with E353A counted along it
T6 sequence (P03372 whole entry P324A): as the sequence (P03372 whole entry, one chain of several) above, with P324A counted along it
T5 sequence (P03372 whole entry K449A): as the sequence (P03372 whole entry, one chain of several) above, with K449A counted along it

O=C(c1cc(Br)ccc1O)c1cc(Br)ccc1O [4631-P/1]
dissociation of the BRCA1: ER complex (BRCA1: ER complex; MCF-7, E2 10 nM, compound 0, 1, 20 μM, 24 hr, IP-Western): concentration-dependent dissociation of ER and BRCA1 | effect on total levels of ER or BRCA1 (BRCA1: ER complex; MCF-7, Western blotting of non-precipitated lysates): no effect

O=C(CC(c1ccccc1)N1CCCCC1)c1ccccc1 (centres unmarked) [35446-L/1, 1,3-diphenyl-3-(piperidin-1-yl)propan-1-one]
inhibition at 20 µM (ER-β; DU-145, read-out: inhibition of E2-stimulated ER-β activity): ~67% | IC50 (ER-β; DU-145 transfected with ER-β, E2 10 nM, 24 hr, read-out: IC50 for inhibition of ER-β activity): 2 µM | IC50 (ER Pro325Ala): 0.9 µM | IC50 (ER Ile386Ala+Leu387Ala): > 15 µM | IC50 (ER Lys449Ala): > 15 µM | IC50 (ER Pro324Ala): > 15 µM | IC50 (ER Glu353Ala): > 10 µM | IC50 (ER Glu323Ala): 0.9 µM | inhibition at 20 µM (ER-α): > 90%
